≈ marks a conversion by molar mass, not a printed value.
Columns and labels:
[1] = In vitro cytotoxic activity, CyQuant cell viability, 72 h; assay type: cell-based; conditions: mouse
Protocol: (§1) The used cell lines include MDA-MB-231 human breast adenocarcinoma cells, B16-F10 mouse metastatic melanoma cells and MEF primary mouse embryonic fibroblast. Cells were maintained in a DMEM high glucose medium (Mediatech, Manassas, VA, USA) supplemented with 10% (MDA-MB-231 and B16-F10) or 15% (MEF) heat-inactivated fetal bovine serum (HyClone Laboratories, South Logan, USA), 100 IU ml^-1 penicillin and 100 μg ml^-1 streptomycin while maintained at 37°C in a 5% CO2 humidified atmosphere. Cell viability was measured using a CyQuant® Direct Cell Proliferation Assay Kit (Life Technologies, Grand Island, NY, USA) following the manufacturer’s instruction. Briefly, 5,000 cells per well were seeded onto a flat-bottom 96-well plate in 200 μL final volume. Six hours after seeding, the culture medium was replaced by the medium containing the tested compounds at 0.01 to 100 µM concentrations in DMSO (0.1% final concentration) during 72 h. Untreated cells (medium containing only 0.1% DMSO) were used as controls. At the end of the incubation, 100 μL of culture medium was removed from each well and replaced by detection reagent solution provided by the kit (which is a 1:5 mixture of the reagent CyQUANT®, direct nucleic acid stain and the reagent labeled as CyQUANT® direct background suppressor I). Cells were incubated for 1 h and fluorescence emission was measured at 535 nm with excitation at 480 nm in a microplate reader (Infinite 200 PRO, Tecan, Grödig, Austria). At least four independent experiments were performed for each concentration. The results from each experiment were transformed into percentage of controls and the LC50 values were graphically obtained from the dose-response curves. The LC50 value was obtained adjusting the dose-response curve to sigmoidal curves (variable slope) using the GraphPad Prisma 6.0 software ([GraphPad-Software, 2015]).

[2] = system: MDA-MB-231 human breast adenocarcinoma cells; experiment: as above; assay type: cell-based; conditions: Homo sapiens, MDA-MB-231, 72 h, read-out: LC50 ± SD
Protocol: as §1

[3] = system: B16-F10 mouse metastatic melanoma cells; experiment: as above; assay type: cell-based; conditions: Mus musculus, B16-F10, 72 h, read-out: LC50 ± SD
Protocol: Cell viability was measured using a CyQuant® Direct Cell Proliferation Assay Kit (Life Technologies, Grand Island, NY, USA) following the manufacturer’s instruction. Briefly, 5,000 cells per well were seeded onto a flat-bottom 96-well plate in 200 μL final volume. Six hours after seeding, the culture medium was replaced by the medium containing the tested compounds at 0.01 to 100 µM concentrations in DMSO (0.1% final concentration) during 72 h. Untreated cells (medium containing only 0.1% DMSO) were used as controls. At the end of the incubation, 100 μL of culture medium was removed from each well and replaced by detection reagent solution provided by the kit (which is a 1:5 mixture of the reagent CyQUANT®, direct nucleic acid stain and the reagent labeled as CyQUANT® direct background suppressor I). […] At least four independent experiments were performed for each concentration.

[4] = system: S. aureus MRSA 622-4; experiment: Antibacterial MIC, CLSI microdilution, human pathogens; assay type: cell-based; conditions: 18 h; for MIC: Staphylococcus aureus, read-out: Minimum inhibitory concentration (MIC)
Protocol: (§2) Briefly, stock solutions (5 mg/ml) of compounds in DMSO were diluted in Mueller-Hinton broth (MHB) to the different two-fold assay concentrations. […] The obtained solution was added to MHB and serially two-fold diluted in a 96-well microplate. A sample of 100 μL of inoculum 1.5 × 10^6 colony forming unit (CFU) ml^-1 in MHB was added and then incubated at 37°C for 18 h. The assay was repeated three times. Wells containing MHB, 100 μL of inoculum, and DMSO served as negative controls.

[5] = system: S. aureus MRSA 97-7; experiment: as above; assay type: cell-based; conditions: 18 h; for MIC: Staphylococcus aureus, read-out: Minimum inhibitory concentration (MIC)
Protocol: as §2

[6] = system: S. aureus NTCC8325-4; experiment: as above; assay type: cell-based; conditions: for MIC: Staphylococcus aureus, NTCC83254, 18 h, read-out: Minimum inhibitory concentration (MIC)
Protocol: as §2

[7] = system: bacterial growth; set-up: method as in Bravo et al., 2005; conditions: high concentrations (1,000 µg/ml); ref Bravo et al., 2005; cited from earlier work
[8] = system: E. coli 33.1; experiment: Antibacterial MIC, CLSI microdilution, human pathogens; assay type: cell-based; conditions: Escherichia coli; E. coli 33.1 (multi-resistant); 18 h; read-out: Minimum inhibitory concentration (MIC)
Protocol: as §2

[9] = system: E. coli ATCC25922; experiment: as above; assay type: cell-based; conditions: Escherichia coli, 18 h, read-out: Minimum inhibitory concentration (MIC)
Protocol: as §2

[10] = target: T1, 5-hLOX (Homo sapiens, UniProt P09917); experiment: In vitro 5-hLOX enzyme assay (H2DCFDA fluorescence); assay type: biochemical; conditions: for Type of inhibition: 5-hLOX
T1 construct: purchased Cayman Chemicals Inc. (Ann Arbor, MI, USA)
T1 sequence (P09917 1-674): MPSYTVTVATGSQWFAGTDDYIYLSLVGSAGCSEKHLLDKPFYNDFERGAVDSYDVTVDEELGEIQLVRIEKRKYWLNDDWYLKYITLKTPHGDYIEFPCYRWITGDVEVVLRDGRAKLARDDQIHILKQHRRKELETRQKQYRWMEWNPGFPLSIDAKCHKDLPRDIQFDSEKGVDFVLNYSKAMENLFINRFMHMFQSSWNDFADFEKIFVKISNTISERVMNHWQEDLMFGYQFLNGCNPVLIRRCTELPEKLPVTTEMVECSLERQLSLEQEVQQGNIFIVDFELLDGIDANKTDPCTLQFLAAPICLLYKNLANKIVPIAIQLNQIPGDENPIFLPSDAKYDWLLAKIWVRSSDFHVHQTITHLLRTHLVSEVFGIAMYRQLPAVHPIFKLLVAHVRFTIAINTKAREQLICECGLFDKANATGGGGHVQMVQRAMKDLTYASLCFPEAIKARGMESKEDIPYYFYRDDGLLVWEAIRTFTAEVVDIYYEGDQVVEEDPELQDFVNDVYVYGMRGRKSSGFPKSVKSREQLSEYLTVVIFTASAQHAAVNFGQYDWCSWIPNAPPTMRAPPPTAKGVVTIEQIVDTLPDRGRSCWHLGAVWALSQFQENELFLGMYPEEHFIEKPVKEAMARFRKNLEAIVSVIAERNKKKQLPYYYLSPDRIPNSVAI
Protocol: The commercially available enzyme 5-hLOX from Cayman Chemicals Inc. (Ann Arbor, MI, USA), was diluted (1:500) in the assay buffer. This contained 4-(2-hydroxyethyl)-1-piperazineethane sulfonic acid (HEPES) 50 mM, ethylenediamine tetraacetic acid (EDTA) 2 mM, adenosine triphosphate (ATP) 10 μM, and CaCl2 10 μM at pH 7.5) admixed with 10 μM of H2DCFDA. The reaction mixture was incubated for 15 min in the assay plate. Later, 280 μL of buffer and 10 μM of inhibitors were added per well and incubated for 30 min at 37°C. Finally, the reaction was started by adding a suitable concentration of arachidonic acid (0.5 μM) and the fluorescence was read in a multimode detector Synergy™ HT Multi-Mode Microplate Reader (Biotek, Bad Friedrichshall, Germany) […] after incubation at room temperature for 1 h. The IC50 values were obtained for analysis of oxidation of H2DCFDA dye to the highly fluorescent 2’,7’-dichloro-fluorescein (DCF) using the non-linear curve-fitting program. […] All data were collected in duplicate and the assays were performed on different days to ensure reproducibility.

[11] = target: T1, 5-hLOX; experiment: as above; assay type: biochemical; conditions: kinetic assays, inhibitor 0–1 μM, substrate 0.2–5 μM
[12] = system: B. cinerea; experiment: In vitro fungicidal activity, radial mycelial growth test on PDA; assay type: cell-based; conditions: Botrytis cinerea, 72 h, read-out: Percentage of inhibition on in vitro mycelial growth of B. cinerea
Protocol: (§3) A strain of Botrytis cinerea isolated from a naturally infected grape (Vitis vinifera) was used in all experiments. Isolated Phytophtora cinnamomi was provided by the Agricultural and Livestock Service of Valparaíso. Both strains were maintained on a potato dextrose agar (PDA) medium (DIFCO, Detroit, MI) at 4°C. The inoculum of both pathogens was grown on PDA and incubates in dark at 23°C for 5 days in the case of B. cinerea and 8 days for P. cinnamomi.
(§4) The fungicidal activity of flavanones, extracts, the negative control (C-) composed of solvent (1% ethanol), and the positive control (C+, commercial fungicide Captan® and metalaxil® for B. cinerea and P. cinnamomi, respectively) were assessed using the radial growth test technique on PDA medium as described ([Taborga et al., 2015]). All test samples were dissolved in ethanol (1%) and water, to obtain final concentrations of 50, 150, and 250 mg/L in the PDA medium. A plug (4 mm) of PDA medium with five-day-old mycelium colonies of the pathogen was placed at the center of a Petri dish with PDA medium with or without studied test samples and were incubated at 23°C in dark for 72 h (B. cinerea) and 120 h (P. cinnamomi). After incubation, the diameters of colonies were measured and the inhibition percentage was calculated as the average of three replicas compared to C-.

[13] = system: P. cinnamomi; experiment: as above; assay type: cell-based, Phytophtora cinnamomi; conditions: 120 h
Protocol: as §3, §4

SMILES: COc1cc([C@@H]2c3cc4c(cc3[C@@H](O[C@@H]3O[C@@H]5CO[C@@H](C)O[C@H]5[C@H](O)[C@H]3O)[C@H]3COC(=O)[C@H]23)OCO4)cc(OC)c1O [Etoposide, reference compound]
- CC50 at 72 h [1]: 1030 ± 170 nM
- CC50 [2]: 1330 ± 280 nM
- CC50 [3]: 1740 ± 320 nM

SMILES: CN[C@H](CC(C)C)C(=O)N[C@H]1C(=O)N[C@@H](CC(N)=O)C(=O)N[C@H]2C(=O)N[C@H]3C(=O)N[C@H](C(=O)N[C@H](C(=O)O)c4cc(O)cc(O)c4-c4cc3ccc4O)[C@H](O)c3ccc(c(Cl)c3)Oc3cc2cc(c3O[C@@H]2O[C@H](CO)[C@@H](O)[C@H](O)[C@H]2O[C@H]2C[C@](C)(N)[C@H](O)[C@H](C)O2)Oc2ccc(cc2Cl)[C@H]1O [Vancomicin, reference compound]
- Minimum inhibitory concentration (MIC) [4]: 5 µg/mL (≈ 3.45 µM)
- Minimum inhibitory concentration (MIC) [5]: 25 µg/mL (≈ 17.3 µM)
- Minimum inhibitory concentration (MIC) ([6]; 18 h): 3,5 µg/ml

SMILES: O=c1[nH]c2ccccc2o1 [BOA, 2-benzoxazolinone]
- inhibitory activity of bacterial growth [7]: inhibitory activity

SMILES: O=C1Nc2ccc(O)cc2OC1O (centres unmarked) [Compound 7-OH-HBOA, 2,7-dihydroxy-2H-1,4-benzoxazin-3(4H)-one]
- inhibitory activity of bacterial growth [7]: inhibitory activity

SMILES: COc1cc(C2CC(=O)c3c(O)cc(O)cc3O2)ccc1O (centres unmarked) [Compound 4, 3’-methoxy-4’,5,7-trihydroxyflavanone]
- MIC [8]: > 100 µg/mL
- MIC [9]: > 100 µg/mL
- MIC [4]: > 100 µg/mL
- MIC [5]: > 100 µg/mL
- MIC [6]: > 100 µg/mL
- inhibition at 10 µM ([10]; Flavanones at 10 µM): 11.7 ± 2.45%

SMILES: CC1(C)S[C@@H]2[C@H](NC(=O)[C@H](N)c3ccccc3)C(=O)N2[C@H]1C(=O)O [Ampicillin, reference compound]
- MIC [8]: > 100 µg/mL
- MIC [9]: 60 µg/mL (≈ 172 µM)

SMILES: O=C1CC(c2ccc(O)c(O)c2)Oc2cc(O)cc(O)c21 (centres unmarked) [Compound 3, 5,7,3’,4’-Tetrahydroxyflavanone]
- MIC [8]: > 100 µg/mL
- MIC [9]: > 100 µg/mL
- MIC [4]: > 100 µg/mL
- MIC [5]: > 100 µg/mL
- MIC [6]: > 100 µg/mL
- Type of inhibition [10]: competitive
- inhibition at 10 µM ([10]; Flavanones at 10 µM): 88 ± 0.678%
- IC50 ([10]; read-out: IC50 (5-hLOX)): 220 nM
- Ki [11]: 70 nM

SMILES: O=C1C2CC=CCC2C(=O)N1SC(Cl)(Cl)Cl (centres unmarked) [Captan]
- inhibition at 50 µg/mL ([12]; 50 mg/L): 94 ± 5.2%
- inhibition at 150 µg/mL ([12]; 150 mg/L): 100 ± 0.1%
- inhibition at 250 µg/mL ([12]; 250 mg/L): 100 ± 0.2%

SMILES: CC(Cc1ccc(O)c(O)c1)C(C)Cc1ccc(O)c(O)c1 (centres unmarked) [NDGA, nordihydroguaiaretic acid, reference compound]
- Type of inhibition [10]: competitive
- % of inhibition (5-hLOX) ([10]; Flavanones at 10 µM): 93 ± 5.870%

SMILES: CC(=O)O[C@H]1C(=O)[C@@]2(C)[C@H]([C@H](OC(=O)c3ccccc3)[C@]3(O)C[C@H](OC(=O)[C@H](O)[C@@H](NC(=O)c4ccccc4)c4ccccc4)C(C)=C1C3(C)C)[C@]1(OC(C)=O)CO[C@@H]1C[C@@H]2O [Taxol, reference compound]
- CC50 at 72 h [1]: 400 ± 70 nM
- CC50 [2]: 210 ± 480 nM
- CC50 [3]: 480 ± 80 nM

SMILES: O=C1C(O)Oc2ccccc2N1O (centres unmarked) [DIBOA, 2,4-dihydroxy-2H-1,4-benzoxazin-3(4H)-one]
- inhibitory activity of bacterial growth [7]: inhibitory activity

SMILES: O=C1Nc2ccccc2OC1O (centres unmarked) [HBOA, 2-dydroxy-2H-1,4-benzoxazin-3(4H)-one]
- inhibitory activity of bacterial growth [7]: inhibitory activity

SMILES: COCC(=O)N(c1c(C)cccc1C)C(C)C(=O)OC (centres unmarked) [Metalaxil, reference compound]
- Percentage of inhibition on in vitro mycelial growth of P. cinnamomi ([13]; 50 mg/L): 100 ± 0.2%
- Percentage of inhibition on in vitro mycelial growth of P. cinnamomi ([13]; 150 mg/L): 100 ± 0.1%
- Percentage of inhibition on in vitro mycelial growth of P. cinnamomi ([13]; 250 mg/L): 100 ± 0.1%

From paper PMC7399337, “Biological Properties and Absolute Configuration of Flavanones From Calceolaria thyrsiflora Graham” (Frontiers in Pharmacology, 2020)
